Source: paper PMC6767236, “Selective Cannabinoid 2 Receptor Agonists as Potential Therapeutic Drugs for the Treatment of Endotoxin-Induced Uveitis” (Molecules, 2019)

Columns and labels:
[1] = set-up: method as in earlier work; conditions: * previously published, cited from earlier work
[2] = target: T1, human CB1R (Homo sapiens, UniProt P21554); assay: PathHunter β-arrestin recruitment assay, hCB1R; type: cell-based; conditions: read-out: hCB1R: beta arrestin EC50
T1 construct: host or cells: CHO
T1 sequence (P21554 whole entry): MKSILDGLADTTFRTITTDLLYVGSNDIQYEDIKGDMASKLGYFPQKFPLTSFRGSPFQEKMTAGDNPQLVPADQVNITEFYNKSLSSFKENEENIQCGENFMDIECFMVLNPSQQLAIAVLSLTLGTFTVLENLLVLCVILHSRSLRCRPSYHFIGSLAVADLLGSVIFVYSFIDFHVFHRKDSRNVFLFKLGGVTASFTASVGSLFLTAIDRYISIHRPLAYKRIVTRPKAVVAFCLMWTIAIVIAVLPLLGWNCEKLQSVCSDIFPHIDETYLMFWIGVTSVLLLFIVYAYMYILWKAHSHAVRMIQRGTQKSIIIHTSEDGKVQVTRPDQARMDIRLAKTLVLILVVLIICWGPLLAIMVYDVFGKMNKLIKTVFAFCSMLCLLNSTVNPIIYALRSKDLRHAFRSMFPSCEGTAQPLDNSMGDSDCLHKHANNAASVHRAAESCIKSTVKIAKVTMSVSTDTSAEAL
Protocol: Assays were carried out using the PathHunter hCB1_bgal, hCB2_bgal, or mCB2_bgal CHOK1 β-arrestin recruitment assay kit (DiscoveRx, Fremont, CA, USA) as previously described. A total of 5000 cells per well were seeded in 384-well plates (Perkin Elmer, MA, USA) containing 20 μL cell culture medium and incubated for 16–18 h at 37 °C and 5% CO2. Cells were stimulated with 10 μM of each agonist or 11 increasing concentrations and incubated for 90 min at 37 °C and 5% CO2. […] The cells were incubated for 90 min at 37 °C and 5% CO2. Compounds in DMSO stock solutions were added using a HP D300 Digital Dispenser (Tecan, Mannedorf, Switzerland). The final concentration of organic solvent per assay point was ≤ 0.1%. The PathHunter Detection mixture was used, according to the manufacturer’s protocol, to determine the β-galactosidase enzyme activity. Detection mixture, 12 μL per well, was added and the plate was incubated for 1 h in the dark at room temperature. Chemiluminescence, indicated as relative light unit, was measured on an EnVision multilabel plate reader (Perkin Elmer, MA, USA).

[3] = test system: leukocyte-endothelial adhesion in the iridial microcirculation; assay: Endotoxin-induced uveitis (EIU), intravital microscopy, CB2R-/- mice; type: in vivo; conditions: topical 1.5% w/v, 6 h after LPS
Source text: Male BALB/c wild-type (WT; 25-30 g; Charles River, QC, Canada) and age-matched (6–8 weeks) CB2R knockout mice (CB2R^-/-) were used for experiments. CB2R^-/- mice were obtained by crossing male C57BL/6J CB2R^-/- mice (strain B6.129P2-Cnr2tm1Dgen/J; Jackson Laboratory, Bar Harbor, ME, USA) with inbred BALB/c female mice (Charles River) for ten generations. Heterozygote mice from separate parents were then bred for a homozygote knock-out of the CB2R^-/-. CB2R^-/- was confirmed via genotyping using DNA extracted from ear punches and the Accustart II Mouse Genotyping Kit (Quanta Biosciences, MD, USA). […]
IVM was conducted as previously described in Toguri et al. (2014). […] The iridial microcirculation was observed using an Olympus OV100 Small Animal Imaging System (Olympus, Tokyo, Japan), which contains an MT-20 light source, fluorescence excitation from a xenon lamp (150 W) and an excitation filter for rhodamine-6G (excitation 515–560 nm, emission 590 nm). Images were captured in real-time by a black and white DP70 CCD C-mount camera and digitally recorded using HCImage software (Hamamatsu, Herrsching, Germany).
During IVM animals were placed on a heating pad in a stereotactic frame, and Tear-Gel® (Novartis Pharmaceuticals Canada Inc., Dorval, QC, Canada) was applied to their cornea. […] Two to four videos of each quadrant were recorded for 30 s each. […]

In the case of `CC(C)(C)c1nc(N2CC[C@H](O)C2)c2nnn(Cc3nnnn3C3CC3)c2n1` [RO6871304, (3S)-1-{5-tert-butyl-3-[(1-cyclopropyl-1H-tetrazol-5-yl)methyl]-3H-[1,2, 3]triazolo[4,5-d]pyrimidin-7-yl}pyrrolidin-3-ol], the “Thermodynamic Solubility in FaSSIF (pH 6.5)” value ([1]; FaSSIF pH 6.5) is listed as 80 μg/mL, the “Thermodynamic Solubility in FeSSIF (pH 5.5)” value ([1]; FeSSIF pH 5.5) is listed as 273 μg/mL and the “Thermodynamic Solubility in Aqueous Buffer (pH 6.5)” value ([1]; aqueous phosphate buffer pH 6.5) is listed as 56 μg/mL. The EC50 [2] was > 30 µM and the “leukocyte adherence in CB2R-/- mice with EIU” value [3] was “no significant reduction in leukocyte adherence”.
